US10793576B2, “Compound used as Bruton's tyrosine kinase inhibitor and preparation method and application thereof” (Chengdu Brilliant Pharmaceutical Co., LTD., priority 2017, dated 2020)
pIC50: −log10 of the molar value.

Experiments:
OCI-LY10 cells = experiment: Cell proliferation inhibition in vitro, OCI-ly10 cells by CCK-8 method; format: cell-based; settings: Homo sapiens, 72 hours, read-out: Inhibitions of cell activities IC50 (nM) OCI-LY10
Method: (§1) Test Example 2: Determination of the Inhibition of Cell Proliferation Inhibitory Activity in
(§2) vitro of compounds using different cell lines
(§3) 2: Preparation of the Compounds:
(§4) The compounds to be tested were diluted with DMSO to prepare a mother liquor at a final concentration of 10 mM for later use.
(§5) 3.1. Test of TMD8 and OCI-ly10 Cells by CCK-8 Method
(§6) Logarithmic growth phase cells were collected, counted and resuspended in complete medium. The cell concentration was adjusted to a suitable concentration (determined according to the cell density optimization test results), and seeded to 96-well plate and 100 μl of the cell suspension was added to each well. The cells were incubated in an incubator at 37° C., 100% relative humidity and 5% C02 for 24 hours.
(§7) The compounds to be tested were diluted with the medium to the set corresponding action concentration, and the cells were added at 25 µl/well. The cells were incubated in an incubator at 37° C., 100% relative humidity and 5% C02 for 72 hours.
(§8) The medium was aspirated and discarded, and a complete medium containing 10% of the test reagent was added and the obtained system was incubated in a 37° C. incubator for 1 hour-4 hours.
(§9) As: OA of the sample (cell+test reagent+test compound)
(§10) Ac: OA of the negative control (cell+test reagent+DMSO)
(§11) Ab: OA of the positive control (medium+test reagent+DMSO)
(§12) IC50 curve fitting was performed using the software Graphpad Prism 5 or XLfit and IC50 values were calculated.

TMD8 cells = experiment: Cell proliferation inhibition in vitro, TMD8 cells by CCK-8 method; format: cell-based; settings: Homo sapiens, 72 hours, read-out: Inhibitions of cell activities IC50 (nM) TMD8
Method: as §1, §2, §3, §4, §5, §6, §7, §8, §9, §10, §11, §12

BTK kinase = BTK kinase (Homo sapiens (Human), UniProt Q06187); experiment: In vitro assay for the inhibition of BTK kinase activity (Mobility-Shift Assay); format: biochemical
Chain of BTK kinase (Q06187 whole entry): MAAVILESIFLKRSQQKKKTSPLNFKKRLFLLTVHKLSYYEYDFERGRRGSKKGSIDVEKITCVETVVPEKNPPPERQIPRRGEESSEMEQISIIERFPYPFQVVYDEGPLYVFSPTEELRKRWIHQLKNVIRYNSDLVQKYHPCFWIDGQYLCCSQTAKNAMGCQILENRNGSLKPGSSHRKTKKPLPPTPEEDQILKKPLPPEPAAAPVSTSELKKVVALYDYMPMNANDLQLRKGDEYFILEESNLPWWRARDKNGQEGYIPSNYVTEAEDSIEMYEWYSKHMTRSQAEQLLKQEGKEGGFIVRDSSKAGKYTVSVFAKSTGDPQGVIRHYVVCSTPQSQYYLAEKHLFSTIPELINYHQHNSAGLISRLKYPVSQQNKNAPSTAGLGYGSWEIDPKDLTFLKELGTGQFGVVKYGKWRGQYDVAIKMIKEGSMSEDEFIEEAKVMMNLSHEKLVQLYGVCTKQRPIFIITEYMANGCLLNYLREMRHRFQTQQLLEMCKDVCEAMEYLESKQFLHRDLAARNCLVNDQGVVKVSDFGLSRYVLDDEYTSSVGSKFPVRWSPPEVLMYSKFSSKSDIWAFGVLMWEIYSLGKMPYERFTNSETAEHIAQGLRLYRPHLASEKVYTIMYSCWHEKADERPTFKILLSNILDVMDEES
Excerpt: Mobility-Shift Assay, which is microfluidic chip technology, applies the basic concept of capillary electrophoresis to microfluidic environments. The substrate used for the experiment is a polypeptide with a fluorescent label. Under the action of enzyme in the reaction system, the substrate is transformed into a product, and the charge the substrate carries also changes accordingly. The use of the charge difference between the substrate and the product involved in Mobility-Shift Assay achieves the separating of the two, and they are tested respectively. The test results are expressed by conversion rates.
(3) 100% DMSO was added to the positive control well and the negative control well, respectively;

DOHH2 cells = experiment: Cell proliferation inhibition in vitro, DOHH2 cells by CTG assay; format: cell-based; settings: Homo sapiens, DOHH-2, 72 hours, read-out: Inhibitions of cell activities IC50 (nM) DOHH2
Method: as §1, §2, §3, §4
3.2 Test of DOHH2 Cells by CTG Assay
as §6
The compounds to be tested were diluted with the medium to the set corresponding action concentration, and the cells were added at 10 µl/well. The cells were incubated in an incubator set at 37° C., 100% relative humidity and 5% C02 for 72 hours.
The medium was aspirated and discarded, and 30 μl of test reagent was added. The plate was gentle shaken away from the light to lyse the cells.
as §9, §10, §11, §12

Row | IC50 (OCI-LY10 cells) | pIC50 (BTK kinase) | SMILES | IC50 (TMD8 cells) | IC50 (DOHH2 cells)
1 | 1.3 nM | 8.74 | CC#CC(=O)N1C2CN[C@@H](C2)C1c1nc(-c2ccc(C(=O)Nc3cc(C(F)(F)F)ccn3)cc2)c2c(N)nccn12 (stereo partly drawn) [Example 53] | 0.75 nM | 166 nM
2 | 0.41 nM | 7.68 | CC#CC(=O)N1C2C[C@@H](C1c1nc(-c3ccc(C(C)(O)c4ccccc4)cc3)c3c(N)nccn13)N(C(C)C)C2 (stereo partly drawn) [Example 91] | 1.4 nM | > 1000 nM
3 | 0.21 nM | 8.04 | CC#CC(=O)N1C[C@H]2[C@@H]([C@H]1c1nc(-c3ccc(C(=O)Nc4ccccn4)cc3)c3c(N)nccn13)C2(C)C [Example 6] | 5.4 nM | > 1000 nM
4 | 0.67 nM | 8.48 | C=CC(=O)N1C2CN[C@@H](C2)C1c1nc(-c2ccc(C(=O)Nc3ccccn3)cc2)c2c(N)nccn12 (stereo partly drawn) [Example 13] | 0.38 nM | 138 nM
5 | 0.26 nM | 8.07 | C=CC(=O)N1CC2CCCC2C1c1nc(-c2ccc(C(C)(O)c3ccccc3)cc2)c2c(N)nccn12 (stereo not drawn) [Example 77] | 2.5 nM | 212 nM
6 | 0.21 nM | 7.44 | C=CC(=O)N1C2C[C@@H](C1c1nc(-c3ccc(Oc4ccccc4)cc3)c3c(N)nccn13)N(C(C)=O)C2 (stereo partly drawn) [Example 110] | 1.2 nM | 198 nM
7 | 1.4 nM | 7.74 | CC#CC(=O)N1CC2(CC2)C[C@H]1c1nc(-c2ccc(C(C)(O)c3ccccc3)cc2)c2c(N)nccn12 (stereo partly drawn) [Example 73, 1-((6S)-6-(8-amino-1-(4-(1-hydroxy-1-phenylethyl)phenyl)imidazo[1,5-a]pyrazin-3-yl)-5-azaspiro[2.4]heptan-5-yl)but-2-yn-1-one] | 42.3 nM | 124 nM
8 | 1.5 nM | 7.74 | C=CC(=O)N1CC2(CC2)C[C@H]1c1nc(-c2cccc(C(=O)Nc3ccccn3)c2)c2c(N)nccn12 [Example 124, (S)-3-(3-(5-acryloyl-5-azaspiro[2.4]heptan-6-yl)-8-aminoimidazo[1,5-a]pyrazin-1-yl)-N-(pyridin-2-yl)benzamide] | 11.8 nM | 629 nM
9 | 4.4 nM | 8.28 | C=CC(=O)N1CC2CCCC2C1c1nc(-c2ccc(C(=O)Nc3cc(Cl)ccn3)cc2)c2c(N)nccn12 (stereo not drawn) [Example 68] | 3.2 nM | 172 nM
10 | 1.4 nM | 7.92 | C=CC(=O)N1C(c2nc(-c3ccc(C(=O)Nc4cc(Cl)ccn4)cc3)c3c(N)nccn23)CC2CC21 (stereo not drawn) [Example 71] | 8.4 nM | 84 nM
11 | 2.1 nM | 7.14 | CC#CC(=O)N1CC2CC1(c1nc(-c3ccc(C(=O)Nc4ccccn4)cc3)c3c(N)nccn13)CO2 (stereo not drawn) [Example 10] | 6.3 nM | > 1000 nM
12 | 0.81 nM | 7.39 | CC#CC(=O)N1C2CN[C@@H](C2)C1c1nc(-c2ccc(Oc3ccccc3)cc2)c2c(N)nccn12 (stereo partly drawn) [Example 107] | 12.3 nM | 986 nM

Row | SMILES | IC50 (OCI-LY10 cells) | pIC50 (BTK kinase) | IC50 (TMD8 cells) | IC50 (DOHH2 cells)
13 | CC#CC(=O)N1[C@H]2CC[C@@H]1[C@@H](c1nc(-c3ccc(C(=O)Nc4ccccn4)cc3)c3c(N)nccn13)C2 [Example 119, 4-(8-amino-3-((1R,2S,4S)-7-(but-2-ynoyl)-7-azabicyclo[2.2.1]heptan-2-yl)imidazo[1,5-a]pyrazin-1-yl)-N-(pyridin-2-yl)benzamide] | 0.42 nM | 7.37 | 2.4 nM | > 1000 nM
14 | C=CC(=O)N1C2CCC1(c1nc(-c3ccc(Oc4ccccc4)cc3)c3c(N)nccn13)COC2 (stereo not drawn) [Example 104] | 0.42 nM | 8.34 | 3.6 nM | 718 nM
15 | CC#CC(=O)N1C2CCC1(c1nc(-c3ccc(C(C)(O)c4ccccc4)cc3)c3c(N)nccn13)COC2 (stereo not drawn) [Example 85] | 0.97 nM | 8.03 | 18.2 nM | 96 nM
